Laboratory results reported in US7329518B2, “Enzyme for producing optically active pyridineethanol derivatives” (Kaneka Corporation, priority 1999, dated 2008).

Each molecule was assayed on FPDH (assay: Behaviors of FPDH against inhibitors (reducing activity measurement with added compounds and metal salts)). Settings: inhibitor 0.01 mM; activity without inhibitor = 100%; 1 mM 5-acetylfuro[2,3-c]pyridine, 0.25 mM NADH, pH 6.5, 30° C.
Type: biochemical, Candida maris IFO 10003

| Compound | Relative activity |
| --- | --- |
| O=C(O)c1cc(SSc2ccc([N+](=O)[O-])c(C(=O)O)c2)ccc1[N+](=O)[O-] [DTNB] | 98% |
| O=c1c(O)c(-c2ccc(O)c(O)c2)oc2cc(O)cc(O)c12 [Quercetin] | 78% |

Same assay, conditions: inhibitor 0.1 mM; activity without inhibitor = 100%; 1 mM 5-acetylfuro[2,3-c]pyridine, 0.25 mM NADH, pH 6.5, 30° C.

| Compound | Relative activity |
| --- | --- |
| O=C(O)c1cc[c]([Hg][Cl])cc1 [p-Chloromercuribenzoic acid] | 100% |

Same assay, conditions: inhibitor 1.0 mM; activity without inhibitor = 100%; 1 mM 5-acetylfuro[2,3-c]pyridine, 0.25 mM NADH, pH 6.5, 30° C.

| Compound | Relative activity |
| --- | --- |
| O[C@H](CS)[C@H](O)CS (racemic) [Dithiothreitol] | 93% |
| c1cnc2c(c1)ccc1cccnc12 [1,10-Phenanthroline] | 98% |
| OCCS [2-Mercaptoethanol] | 94% |
| O=S(=O)([O-])[O-].[Cu+2] [CuSO4] | 103% |
| O=C(O)CN(CCN(CC(=O)O)CC(=O)O)CC(=O)O [EDTA] | 98% |
| [Cl][Hg][Cl] [HgCl2] | 0% |
| O=S(=O)([O-])[O-].[Mg+2] [MgSO4] | 81% |
| [Cl][Mn][Cl] [MnCl2] | 76% |
| CCN1C(=O)C=CC1=O [N-ethylmaleimide] | 84% |
| O=S(=O)([O-])[O-].[Zn+2] [ZnSO4] | 74% |

Same assay, conditions: pH 6.5

| Compound | Relative activity |
| --- | --- |
| [Cl-].[Cl-].[Co+2] [CoCl2] | 85% |
| O=C(O)CI [Iodoacetic acid] | 80% |

Same assay, conditions: standard reaction conditions for reducing activity measurement

| Compound | Inhibition of the enzyme activity (in words) |
| --- | --- |
| [Hg+2] [mercury ion] | inhibited |

The molecules below were run on FPDH (assay: Specificity of FPDH: reducing activity against various carbonyl compounds as substrates). Settings: substrate 1 mM; 5-acetylfuro[2,3-c]pyridine = 100%; 0.25 mM NADH, pH 6.5, 30° C.
Type: biochemical, Candida maris IFO 10003
Protocol: In the practice of the invention, the reducing activity of the enzyme is determined by carrying out the reaction in 3.0 ml of a reactant mixture containing 1 mM substrate, 0.25 mM coenzyme NADH, 0.3% (vol/vol) dimethyl sulfoxide and an enzyme solution in 100 mM phosphate buffer (pH 6.5) at 30° C. for 3 minutes and then measuring the reduction in absorbance at 340 nm.
The term “very low in reducing activity” referring to the specificity means that when the reducing activity against 5-acetylfuro[2,3-c]pyridine is taken as 100%, the reducing activity against the substrate in question is not more than 10%. The term “carbocyclic ketones” means ketones, such as cyclohexanone and cyclopentanone, derived from alicyclic compounds by substituting —C(═O)— for a ring constituent —CH2— thereof.
Hereafter, the reducing activity was measured by allowing the reaction to proceed at 30° C. for 3 minutes in 3.0 ml of a reaction mixture containing 1 mM 5-acetylfuro[2,3-c]pyridine (substrate), 0.25 mM NADH, 0.3% (vol/vol) dimethyl sulfoxide and 0.05 ml of the enzyme solution in 100 mM phosphate buffer (pH 6.5) and measuring the decrease in absorbance at the wavelength 340 nm. These conditions were employed as standard reaction conditions for reducing activity measurement. The enzyme activity oxidizing 1 μmole of NADH to NAD^+ in one minute under these reaction conditions was defined as 1 unit.
The reducing activity of FPDH was examined against various compounds. Activity measurements were conducted under the standard reaction conditions for reducing activity measurement using various carbonyl compounds shown in Table 8 and Table 9 as substrates in lieu of 5-acetylfuro[2,3-c]pyridine. In Table 8 and Table 9, the results are shown in terms of relative activity with the reducing activity when 5-acetylfuro[2,3-c]pyridine was used as the substrate being taken as 100%. As a result, FPDH had reducing activity against ketones and aldehydes but the reducing activity thereof was very low against carbocyclic ketones and the ketone in position α to a carboxyl group.

| Compound | Relative activity (reducing activity, Table 8) | Relative activity (reducing activity, Table 9) |
| --- | --- | --- |
| CC(=O)C1CCCCC1=O (stereo not drawn) [1-Acetylcyclohexanone] | 68% |  |
| CC(=O)C1CCCC1=O (stereo not drawn) [1-Acetylcyclopentanone] | 86% |  |
| CC(=O)c1cc2ccoc2c(Cl)n1 [1-Chloro-5-acetylfuro[2,3-c]pyridine] | 66% |  |
| O=C1CCCc2ccccc21 [1-Tetralone] |  | 2% |
| O=C(CCl)c1cccc(Cl)c1 [2,3′-Dichloroacetophenone] | 19% |  |
| CC(=O)c1ccco1 [2-Acetylfuran] | 43% |  |
| CC(=O)c1ccccn1 [2-Acetylpyridine] | 111% |  |
| CC(=O)c1ccc[nH]1 [2-Acetylpyrrole] | 100% |  |
| CC(=O)c1nccs1 [2-Acetylthiazole] | 86% |  |
| CC(=O)c1cccs1 [2-Acetylthiophene] | 77% |  |
| CCC(C)=O [2-Butanone] | 94% |  |
| CCCCC(C)=O [2-Hexanone] | 38% |  |
| O=C(CO)c1ccccc1 [2-Hydroxyacetophenone] | 54% |  |
| CCCC(=O)C(=O)O [2-Keto-n-valeric acid] |  | 7% |
| CCC(=O)C(=O)O [2-Ketobutyric acid] |  | 5% |
| CCCCCCC(C)=O [2-Octanone] | 38% |  |
| CCCC(C)=O [2-Pentanone] | 67% |  |
| O=C1CCc2ccccc2C1 [2-Tetralone] |  | 0% |
| CC(=O)c1cccnc1 [3-Acetylpyridine] | 107% |  |
| CC(=O)c1ccncc1 [4-Acetylpyridine] | 130% |  |
| CC(=O)c1cc2ccoc2cn1 [5-Acetylfuro[2,3-c]pyridine] | 100% |  |

| Compound | Relative activity (reducing activity, Table 8) | Relative activity (reducing activity, Table 9) |
| --- | --- | --- |
| CC=O [Acetaldehyde] |  | 36% |
| CC(=O)C(C)O (stereo not drawn) [Acetoin] | 43% |  |
| CC(C)=O [Acetone] | 40% |  |
| CC(=O)c1ccccc1 [Acetophenone] | 88% |  |
| CC(=O)CC(C)=O [Acetylacetone] | 123% |  |
| CC(=O)c1cnccn1 [Acetylpyrazine] | 133% |  |
| O=Cc1ccccc1 [Benzaldehyde] |  | 94% |
| CC(=O)CCc1ccccc1 [Benzylacetone] | 96% |  |
| CC12CCC(C(=O)C1=O)C2(C)C (stereo not drawn) [Camphorquinone] |  | 3% |
| O=C1CCCCCC1 [Cycloheptanone] |  | 4% |
| O=C1CCCCC1 [Cyclohexanone] |  | 4% |
| O=C1CCCC1 [Cyclopentanone] |  | 3% |
| CC(=O)C(C)=O [Diacetyl] | 107% |  |
| CCC(=O)CC [Diethyl ketone] | 22% |  |
| CCOC(=O)C(Cl)C(C)=O (stereo not drawn) [Ethyl 2-chloroacetoacetate] |  | 88% |
| CCOC(=O)CC(C)=O [Ethyl acetoacetate] |  | 141% |
| CCOC(=O)C(C)=O [Ethyl pyruvate] | 133% |  |
| COC(=O)CC(C)=O [Methyl acetoacetate] |  | 128% |
| CC(=O)CC(C)C [Methyl isobutyl ketone] | 14% |  |
| CC(=O)C(C)C [Methyl isopropyl ketone] | 43% |  |
| COC(=O)C(C)=O [Methyl pyruvate] | 132% |  |

| Compound | Relative activity (reducing activity, Table 8) | Relative activity (reducing activity, Table 9) |
| --- | --- | --- |
| O=C(O)CC(=O)C(=O)O [Oxalacetic acid] |  | 4% |
| CCC=O [Propionaldehyde] |  | 70% |
| O=Cc1ccccn1 [Pyridine-2-aldehyde] |  | 54% |
| O=Cc1cccnc1 [Pyridine-3-aldehyde] |  | 47% |
| O=Cc1ccncc1 [Pyridine-4-aldehyde] |  | 64% |
| CC(=O)C(=O)O [Pyruvic acid] |  | 3% |
| CC(=O)c1cccc(Cl)c1 [m-Chloroacetophenone] | 120% |  |
| O=Cc1cccc(Cl)c1 [m-Chlorobenzaldehyde] |  | 111% |
| CC(=O)c1cccc([N+](=O)[O-])c1 [m-Nitroacetophenone] | 136% |  |
| O=Cc1cccc([N+](=O)[O-])c1 [m-Nitrobenzaldehyde] |  | 103% |
| CCCC=O [n-Butyr aldehyde] |  | 123% |
| CCCCCC=O [n-Hexyl aldehyde] |  | 71% |
| CC(=O)c1ccccc1Cl [o-Chloroacetophenone] | 9% |  |
| O=Cc1ccccc1Cl [o-Chlorobenzaldehyde] |  | 0% |
| O=Cc1ccccc1[N+](=O)[O-] [o-Nitrobenzaldehyde] |  | 9% |
| CC(=O)c1ccc(Cl)cc1 [p-Chloroacetophenone] | 88% |  |
| O=Cc1ccc(Cl)cc1 [p-Chlorobenzaldehyde] |  | 104% |
| CC(=O)c1ccc(F)cc1 [p-Fluoroacetophenone] | 88% |  |
| CC(=O)c1ccc([N+](=O)[O-])cc1 [p-Nitroacetophenone] | 116% |  |
| O=Cc1ccc([N+](=O)[O-])cc1 [p-Nitrobenzaldehyde] |  | 162% |
